Results reported in paper PMC10004634 (PLOS ONE, 2023).

Assays:
[1] = tested on: TMD8 cells; test: SILAC phosphoproteomic analysis
Experimental: For differential SILAC encoding, both cells were grown in arginine- and lysine-deficient culture medium containing light (Arg0/Lys0) or heavy (Arg10/Lys8) isotopic forms of L-arginine and L-lysine (SILAC medium). […] For mass spectrometric analysis, phosphopeptide-enriched samples were loaded onto a reversed phase analytical column, resolved by an acetonitrile gradient using a nanoflow HPLC system and directly electrosprayed via a nanoelectrospray ion source into an LTQ-Orbitrap Velos mass spectrometer (Thermo Fisher Scientific). […] A false discovery rate (FDR) of 0.01 was selected for protein and peptide identification, and a posterior error probability of ≤0.1 for each peptide-to-spectral match was required. The resulting list of phosphosites exported from the MaxQuant software was filtered for class-I sites (only serine, threonine, or tyrosine assignments with a localization probability of ≥0.75) [33] and used for all subsequent biostatistical analysis. […] Gaussian regression analysis on the histogram plot of these log2-transformed ratios was performed using Sigmaplot (version 10.0; Systat Software Inc.). The obtained values for the mean and standard deviation across the whole quantitative dataset were used to determine thresholds for significant regulation of at least ±2.5 σ. […] Furthermore, only phosphosites conforming to this criterion and showing consistent regulation in both biological replicates were considered as regulated.

[2] = tested on: T-cells in human PBMC; test: PBMC stimulation assay, anti-CD3/CD28-stimulated T-cell activation (CD69); type: cell-based; conditions: 16 h, up to the highest concentration of 10 μM
Experimental: (§1) After culturing, the stimulated cells were stained with fluorescently labeled CD3, CD20, and CD69 antibodies. B-cells (identified by gating CD20-positive and CD3-negative cells) and T-cells (identified by gating CD3-positive and CD20-negative cells) were analyzed by flow cytometry to monitor the expression of CD69. […] GraphPad Prism version 5.04 (GraphPad Software, Inc., San Diego, CA, USA) and its base settings were used for initial values and convergence conditions.

[3] = tested on: B-cells in human PBMC; test: PBMC stimulation assay, anti-IgM-stimulated B-cell activation (CD69); type: cell-based; conditions: anti-IgM 1 μg/mL, 22 h, read-out: IC50 of CD69 inhibition, anti-IgM-stimulated B-cell activation
Experimental: as §1

CC#CC(=O)N1CC[C@@H](n2c(=O)n(-c3ccc(Oc4ccccc4)cc3)c3c(N)ncnc32)C1 [Tirabrutinib]
Tirabrutinib/ctrl. rep. 2 ([1]; NHE1 S796): 0.78 | Tirabrutinib/ctrl. rep. 1 ([1]; PEA15 S82): 0.88 | Tirabrutinib/ctrl. rep. 2 ([1]; PEA15 S82): 0.96 | Regulation of Phosphorylation Site ([1]; PEA15 S137): ↓ | Tirabrutinib/ctrl. rep. 1 ([1]; PEA15 S137): 0.35 | Tirabrutinib/ctrl. rep. 2 ([1]; PEA15 S137): 0.29 | Tirabrutinib/ctrl. rep. 1 ([1]; PIK3AP1 S642): 0.94 | Tirabrutinib/ctrl. rep. 2 ([1]; PIK3AP1 S642): 1.03 | Tirabrutinib/ctrl. rep. 1 ([1]; PIK3AP1 S759): 0.83 | Tirabrutinib/ctrl. rep. 2 ([1]; PIK3AP1 S759): 0.69 | Tirabrutinib/ctrl. rep. 1 ([1]; PIK3AP1 T151): 1.07 | Tirabrutinib/ctrl. rep. 2 ([1]; PIK3AP1 T151): 1.02 | Regulation of Phosphorylation Site ([1]; PIK3AP1 Y570): ↓ | Tirabrutinib/ctrl. rep. 1 ([1]; PIK3AP1 Y570): 0.51 | Tirabrutinib/ctrl. rep. 2 ([1]; PIK3AP1 Y570): 0.41 | Tirabrutinib/ctrl. rep. 1 ([1]; PLCG2 S160): 0.86 | Tirabrutinib/ctrl. rep. 2 ([1]; PLCG2 S160): 1.09 | Tirabrutinib/ctrl. rep. 1 ([1]; PLCG2 S443): 0.84 | Tirabrutinib/ctrl. rep. 2 ([1]; PLCG2 S443): 1.41 | Tirabrutinib/ctrl. rep. 1 ([1]; PLCG2 Y753): 0.79 | Tirabrutinib/ctrl. rep. 2 ([1]; PLCG2 Y753): 0.55 | Regulation of Phosphorylation Site ([1]; PRKCB S241): ↑ | Tirabrutinib/ctrl. rep. 1 ([1]; PRKCB S241): 3.02 | Tirabrutinib/ctrl. rep. 2 ([1]; PRKCB S241): 1.76 | Tirabrutinib/ctrl. rep. 1 ([1]; PRKCB S673): 0.88 | Tirabrutinib/ctrl. rep. 2 ([1]; PRKCB S673): 0.60 | Tirabrutinib/ctrl. rep. 1 ([1]; PRKCB T500): 0.71 | Tirabrutinib/ctrl. rep. 2 ([1]; PRKCB T500): 1.08 | Tirabrutinib/ctrl. rep. 1 ([1]; PRKCB T641): 1.00 | Tirabrutinib/ctrl. rep. 2 ([1]; PRKCB T641): 1.01 | Tirabrutinib/ctrl. rep. 1 ([1]; PRKCB T642): 0.99 | Tirabrutinib/ctrl. rep. 2 ([1]; PRKCB T642): 1.92 | Tirabrutinib/ctrl. rep. 1 ([1]; PRKD2 S198): 0.55 | Tirabrutinib/ctrl. rep. 2 ([1]; PRKD2 S198): 0.69 | Regulation of Phosphorylation Site ([1]; PRKD2 S206): ↓ | Tirabrutinib/ctrl. rep. 1 ([1]; PRKD2 S206): 0.32 | Tirabrutinib/ctrl. rep. 2 ([1]; PRKD2 S206): 0.48 | Regulation of Phosphorylation Site ([1]; PRKD2 S214): ↓ | Tirabrutinib/ctrl. rep. 1 ([1]; PRKD2 S214): 0.46 | Tirabrutinib/ctrl. rep. 2 ([1]; PRKD2 S214): 0.48 | Regulation of Phosphorylation Site ([1]; PRKD2 S710): ↓ | Tirabrutinib/ctrl. rep. 1 ([1]; PRKD2 S710): 0.45 | Tirabrutinib/ctrl. rep. 2 ([1]; PRKD2 S710): 0.56 | Tirabrutinib/ctrl. rep. 1 ([1]; PRKD3 S31): 0.76 | Tirabrutinib/ctrl. rep. 2 ([1]; PRKD3 S31): 0.85 | Tirabrutinib/ctrl. rep. 1 ([1]; PRKD3 S213): 1.40 | Tirabrutinib/ctrl. rep. 2 ([1]; PRKD3 S213): 1.11 | Tirabrutinib/ctrl. rep. 1 ([1]; PRKD3 S364): 0.98 | Tirabrutinib/ctrl. rep. 2 ([1]; PRKD3 S364): 0.97 | Tirabrutinib/ctrl. rep. 1 ([1]; PRKD3 S395): 0.77 | Tirabrutinib/ctrl. rep. 2 ([1]; PRKD3 S395): 0.65 | Regulation of Phosphorylation Site ([1]; PRKD3 S735): ↓ | Tirabrutinib/ctrl. rep. 1 ([1]; PRKD3 S735): 0.41 | Tirabrutinib/ctrl. rep. 2 ([1]; PRKD3 S735): 0.43 | Regulation of Phosphorylation Site ([1]; RAF1 S1055): ↓ | Tirabrutinib/ctrl. rep. 1 ([1]; RAF1 S1055): 0.61 | Tirabrutinib/ctrl. rep. 2 ([1]; RAF1 S1055): 0.61 | Tirabrutinib/ctrl. rep. 1 ([1]; RELA S203): 0.85 | Tirabrutinib/ctrl. rep. 2 ([1]; RELA S203): 1.23 | Tirabrutinib/ctrl. rep. 1 ([1]; RELA S238): 0.84 | Tirabrutinib/ctrl. rep. 2 ([1]; RELA S238): 1.07 | Tirabrutinib/ctrl. rep. 1 ([1]; RPS6KA1 S230): 0.93 | Tirabrutinib/ctrl. rep. 2 ([1]; RPS6KA1 S230): 0.89 | Regulation of Phosphorylation Site ([1]; RPS6KA1 S741): ↓ | Tirabrutinib/ctrl. rep. 1 ([1]; RPS6KA1 S741): 0.61 | Tirabrutinib/ctrl. rep. 2 ([1]; RPS6KA1 S741): 0.59 | Tirabrutinib/ctrl. rep. 1 ([1]; RPS6KA1 T234): 0.93 | Tirabrutinib/ctrl. rep. 2 ([1]; RPS6KA1 T234): 0.96 | Tirabrutinib/ctrl. rep. 1 ([1]; TSC2 S1411): 1.07 | Tirabrutinib/ctrl. rep. 2 ([1]; TSC2 S1411): 1.15 | Tirabrutinib/ctrl. rep. 1 ([1]; TSC2 S1418): 1.12 | Tirabrutinib/ctrl. rep. 2 ([1]; TSC2 S1418): 1.10 | Tirabrutinib/ctrl. rep. 1 ([1]; TSC2 S1799): 1.15 | Tirabrutinib/ctrl. rep. 2 ([1]; TSC2 S1799): 0.89 | Regulation of Phosphorylation Site ([1]; YBX1 S102): ↓ | Tirabrutinib/ctrl. rep. 1 ([1]; YBX1 S102): 0.60 | Tirabrutinib/ctrl. rep. 2 ([1]; YBX1 S102): 0.46 | Tirabrutinib/ctrl. rep. 1 ([1]; YBX1 S165): 0.91 | Tirabrutinib/ctrl. rep. 2 ([1]; YBX1 S165): 0.96 | Tirabrutinib/ctrl. rep. 1 ([1]; YBX1 S167): 1.07 | inhibition of anti-CD3/CD28-stimulated T-cell activation (CD69) [2]: did not inhibit | IC50 [3]: 0.0138 µM
